Test results published in US20090264533A1, “Methods and Compositions for Modulating RHO-Mediated Gene Transcription” (priority 2005, published 2009).
pEC50, pIC50: −log10 of the molar value. “And” between values parts separate entries of the source, which are not always exact repeats. Identical values can stand only once. “Also recorded” adds a separate entry of the source. Like-named read-outs stand apart in the source and are kept apart here.

Key:
[1] = system: Gα13/LARG/SRE transcriptional signaling pathway; test: Gα13QL/LARG-stimulated SRE.L luciferase reporter assay (HTS) in HEK293T cells; type: cell-based, human; conditions: for Inhibition of G13/LARG-stimulated rho transcriptional signaling: FIG. 5
Procedure: FIG. 2 Optimization of HTS Assay. HEK293T cells in 10 cm dishes were co-transfected with 2×-SRE luciferase reporter plasmid (3000 ng) alone or with Gα13QL (5 ng constitutive active mutant) and LARG (150 ng) expression plasmids for 5 hours. Then, the cells were plated into 96-well, and serum-starved for approx. 18 hours (0.5% Fetal Bovine Serum, DMEM medium). Cells were lysed and assayed for luciferase activity via Steady-Glo reagent (Promega) and a luminometer.
In exemplary embodiments of the present invention, HEK293T cells were transiently transfected with a 2×SRE.L-luciferase reporter plasmid that responds selectively to rho signaling (Hill et al., Cell 81:1159-1170, 1995). […] This expression plasmid is specific for rho/MKL/SRF driven gene expression. To stimulate rho, the upstream activators G13 and LARG (FIG. 1) were used. A constitutively active Gα13Q226L plasmid was co-transfected, along with an N-terminal myc-tagged LARG plasmid from Dr. Tohru Kozasa.
To use the reporter assay readout for high throughput chemical inhibition studies, the assay was modified to accommodate chemical inhibitors. Transfection was performed in 10 cm dishes with Lipofectamine 2000. Five hours after transfection, the cells were trypsinized and 30,000 cells per well were transferred into sterile white flat-bottom 96-well plates pre-spotted with 1 μl of chemical compound in DMSO (10 μM final conc). Cells were grown overnight in low serum (0.5% FBS/DMEM medium) exposed to the chemical compounds (in 1% DMSO) for approximately 18 hours before luminescence was read with Steady-Glo luciferase reagent (Promega) in a Victor II plate reader. As a positive inhibitor control, 0.5 μM of Latrunculin B was added to 8 wells per plate. In addition, 8 wells were treated with DMSO only. Latrunculin B is a marine toxin from the Red Sea sponge that is known to sequester monomeric G-actin in the cell and block rho-mediated transcriptional events (Miralles et al., Cell 113:329-342, 2003). The percent inhibition of the Gα13 QL/LARG stimulated SRE-luciferase response was calculated by setting the mean of the negative control (DMSO only) at 0% and the mean of the positive control (Latrunculin B) at 100%. The Z′ score of the assay for high throughput screening was excellent at 0.7 (FIG. 2) indicating reproducibility well-suited to HTS studies.
(§1) An exemplary screen for small molecule inhibitors of the Gα13/LARG/SRE transcriptional signaling pathway utilized a 2000 compound subset of the Maybridge Diverse Chemical Compound Library at 10 μM in the firefly luciferase assay described above. SRE transcription was stimulated by co-transfection of the constitutively active Gα13QL with LARG. […] A cutoff of 75% inhibition was chosen to identify hits for inhibition of the Gα13/LARG/SRE transcriptional signaling pathway. A total of 39 out of 2000 compounds met this criterion. […] To address this issue, a dual luciferase method with a “flash” luciferase substrate plus CMV-Renilla was used as a non-SRF-dependent reporter to eliminate toxic compounds (Table 2). This screen yielded only 4 compounds that were active and specific for the SRE.L reporter signal.

[2] = system: SRE Luciferase; test: SRE Luciferase reporter with different rho pathway activators (PC-3 cells, FIG. 8, FIG. 13); type: cell-based, human; conditions: for luciferase expression induced by G13, LARG or constitutively active rhoA-GV: FIG. 8
Procedure: (§2) FIG. 8 Inhibition of reporter gene transcription in PC-3 cells. CCG 1423 (10 μM) acts at the transcriptional level inhibiting SRE Luciferase stimulated by both upstream (Gα13, LARG, and RhoA-GV) and downstream signals (MKL1).
FIG. 13. Inhibition by CCG-1423 of three different rho pathway activators (G13, rhoA-GV, and MKL1) with no effect on control reporter plasmid CMV-Renilla.
(§3) The point of action of these inhibitors in the assay was investigated by transfecting the cells with different activators of the pathway (rho, MKL1, and an activated SRF analog SRF-VP16). […] This is consistent with the known site of action of Latruculin. […] Thus, the compounds may be acting by inhibiting MKL- or SRF- or both MKL and SRF-dependent gene transcription. […] Regardless of the mechanism of action, the present invention describes a novel gene transcription inhibitor that selectively prevents MKL/SRF-mediated signals.

[3] = system: CMV-Renilla; test: CMV-Renilla control reporter expression; type: cell-based
Procedure: (§4) FIG. 6 CCG-1423 inhibits both RhoA and RhoC transcriptional signals. Cells were transfected with the dual reporters SRE-Luciferase and CMV-Renilla then 6 hours later, 6 micromolar CCG-1423 was added and reporter activity measured 16 hours later.
as §2, §1, §3

[4] = system: GAL4-VP16 Luciferase; test: GAL4-VP16 Luciferase control reporter; type: cell-based
[5] = system: RhoA; test: RhoA transcriptional signal, SRE-Luciferase / CMV-Renilla dual reporters (FIG. 6); type: cell-based; conditions: 6 micromolar, added 6 hours after transfection, read 16 hours later
Procedure: as §4

[6] = system: RhoC; test: RhoC transcriptional signal, SRE-Luciferase / CMV-Renilla dual reporters (FIG. 6); type: cell-based; conditions: 6 micromolar, added 6 hours after transfection, read 16 hours later
Procedure: as §4

[7] = system: ras; test: ras-stimulated transcriptional signals (c-fos and SRE.L reporters, FIG. 14); type: cell-based; conditions: for ras-stimulated transcriptional signals: c-fos reporter, FIG. 14 bottom panel
From the text: FIG. 14. […] The rho reporter SRE.L can also be activated by ras (probably via rho activation).

[8] = system: PC-3 prostate cancer cells; test: DNA synthesis (BrdU incorporation) in PC-3 cells; type: cell-based, human; conditions: presence of serum
Procedure: FIG. 9 Serum and LPA stimulate DNA synthesis in PC-3 cells. PC-3 cells serum starved for 24 hours were treated for an additional 24 hours in the presence of serum (10% FBS) or the indicated concentrations of LPA. BrdU was added to the medium for the last 2 hours and incorporated BrdU detected in 96-well plates by immunostaining.
FIG. 10 CCG-1423 inhibits LPA- but not FBS-stimulated DNA synthesis in PC-3 prostate cancer cells.

[9] = system: SKOV-3 ovarian cancer cell line; test: BrdU incorporation in SKOV-3 cells; type: cell-based
[10] = system: SKOV-3 cells; test: Matrigel matrix invasion by SKOV-3 cells; type: cell-based
Procedure: FIG. 11 CCG-1423 inhibits the spontaneous matrix invasion by PC-3 cells. Top) One prostate and three ovarian cancer lines (50,000 cells per well) were lifted with trypsin, suspended in serum free medium and plated on 24-well Matrigel inserts with (solid) or without (hatched) 30 μM LPA in the lower chamber. After 24 hours, cells above the filter were wiped off and the remaining cells were fixed, stained, and counted to determine the number of cells that had invaded the Matrigel. Bottom) Matrigel invasion by PC-3 cells (-LPA) and SKOV-3 cells (+30 μM LPA) was tested in the presence of the indicated concentrations of CCG-1423.

[11] = system: SKOV-3 cells; test: Cell growth (WST1 absorbance) of SKOV-3 cells; type: cell-based
Procedure: PC-3 or SKOV-3 cells (2000 per well) were plated in medium containing 2% FBS. After growth overnight, the indicated concentrations of CCG-1423 were added from a DMSO stock (<1% final) and cells allowed to continue growing for an additional 7 days. Cell growth was measured by WST1 absorbance (similar to MTT). The IC50 values for PC-3 and SKOV-3 cells were 600 nM and 3 μM. The dotted line represents a no-cell blank.

[12] = system: PC-3 cells; test: WST1 metabolism viability control for BrdU studies; type: cell-based, human; conditions: 10 uM, 18 hours of drug treatment, absence of serum
Procedure: Even more exciting are the effects of the novel inhibitors of the present invention on PC-3 cell functions (LPA-stimulated DNA synthesis, proliferation, and invasion). More particularly, it is shown that for the highly aggressive human PC-3 prostate cancer cell line, the novel inhibitors described herein inhibit proliferation, LPA-stimulated DNA synthesis, and matrix invasion. All of these effects occur at remarkably similar concentrations (IC50 900, 830, and 600 nM, respectively). This is also very similar to the concentration needed to inhibit rho-stimulated SRE.L luciferase expression in HEK293T cells (980 nM). […] Only at high concentrations (10 uM) is there any effect on proliferation or matrix invasion and there is no inhibition of BrdU incorporation as well.

[13] = system: RGS-rhoGEFs (LARG, PDZrhoGEF, p115rhoGEF); test: rhoGEF-stimulated SRE.L dual luciferase assay in HEK293 cells; type: cell-based, human; conditions: 0.5 μM
Procedure: Luciferase Assays—Twenty-four hours post-transfection with firefly and Renilla vectors, HEK293 cells were serum-starved (0.5% serum), and then at 48 h, luciferase activity was determined using the dual luciferase assay kit (Promega, Madison, Wis.) according to the manufacturer's instructions. The ratio of firefly to Renilla luciferase counts was calculated. Data are expressed as the percent of the control value (samples without siRNA).
In these studies, each rhoGEF plasmid DNA (p115, PDZ, or LARG) was introduced into HEK293T cells using LipofectAMINE 2000 in a 96-well plate along with the dual luciferase reporters (SRE.L and pRL-TK) and a panel of different rhoGEF siRNAs (+) or inverted mutant siRNAs (−). […] Firefly/Renilla ratios for the siRNAs (+ and −) were expressed as a percent of that for buffer controls with only the rhoGEF and reporter cDNAs transfected.

[14] = system: ROCK; test: Luciferase expression stimulated by transfecting in the kinase ROCK; type: cell-based
[15] = system: PC-3 cells; test: Cell rounding assay in PC-3 cells; type: cell-based, human; conditions: 30 min
Procedure: Cell Rounding Assay—The day before transfection, PC-3 cells were grown on laminin-coated coverslips in 12-well plates until […]. Cells were then transfected with 0.2 μg of EGFP cDNA. To disrupt rho signaling GFP was co-transfected with either a C3 exotoxin expression vector (0.5 μg) or with 2.0 μg of the indicated siRNA or inverted control along with 8 μl/well of LipofectAMINE 2000. At 45 h post-transfection, cultures were changed to serum-free medium and 6 h later treated with either buffer, thrombin (100 nM), or LPA (50 μM) for 30 min. Cells were then fixed with 4% paraformaldehyde for 10 min and GFP images obtained using an Olympus fluorescence microscope with a 20× objective. Fluorescent cells were counted (100-300 per coverslip) and the percentage of rounded cells determined. Cell rounding at 30 min was dose-dependent (EC50 80 nM for thrombin and 50 μM for LPA) and reversible upon removal of thrombin for 45 min.
rho stimulates several types of cytoskeletal rearrangements. […] In these studies, at 48 h after transfection, cells were stimulated with thrombin (100 nM) or LPA (50 μM) for 30 min, fixed, and fluorescence images taken. […] At 48 h post-transfection cells were stimulated with thrombin or LPA and analyzed as described above. One-hundred green cells from each coverslip were counted, and the percentage of round cells was determined. […]

CC(ONC(=O)c1cc(C(F)(F)F)cc(C(F)(F)F)c1)C(=O)Nc1ccc(Cl)cc1 (stereo not drawn) [CCG-1423]
Inhibition of G13/LARG-stimulated rho transcriptional signaling [1]: Inhibition
pIC50 ([1]; HEK293T cells, dose response curves, read-out: IC50, inhibition of G13/LARG (rho-) stimulated SRE.L luciferase expression): ~6.00 and 6.01 and 6.10
pIC50 ([1]; HTS reporter assay, read-out: IC50, inhibition of MKL/SRF-dependent gene transcription): ~6.10
luciferase expression activated by SRF-VP16 [2]: inhibited; also recorded: able to inhibit
luciferase expression induced by MKL [2]: inhibited
SRE Luciferase stimulated by upstream (Gα13, LARG, and RhoA-GV) and downstream signals (MKL1) ([2]; 10 μM, PC-3 cells): inhibiting
SRF-VP16 Luciferase ([2]; 10 μM, PC-3 cells): no effect
luciferase expression induced by G13, LARG or constitutively active rhoA-GV [2]: inhibited
three different rho pathway activators (G13, rhoA-GV, and MKL1) ([2]; FIG. 13): Inhibition
CMV-Renilla expression ([3]; 3 μM): did not inhibit
CMV-driven Renilla expression ([3]; 10 μM, PC-3 cells): does not inhibit
control reporter CMV-Renilla expression ([3]; concentration not given): not inhibited; also recorded: no effect
Gal-4-VP16 Luciferase signal ([4]; 3 μM): only a slight inhibitory effect
GAL4-VP16 Luciferase ([4]; 10 μM, PC-3 cells): no effect
RhoA transcriptional signal (SRE-Luciferase) [5]: blocking; also recorded: inhibits
RhoC transcriptional signal (rhoC-stimulated luciferase expression) [6]: inhibits
ras-stimulated transcriptional signals [7]: inhibition
FBS (serum)-stimulated DNA synthesis [8]: not inhibited until high concentrations are reached
inhibition of BrdU incorporation [9]: no inhibition
concentration at which there is any effect on matrix invasion [10]: 10 µM
concentration at which there is any effect on proliferation [11]: 10 µM
pIC50 ([11]; 2% FBS, 7 days, WST1): 5.52
viable cells (WST1 metabolism) [12]: no decrease in viable cells

C/C1=C/C(=O)O[C@@H]2C[C@@H](CC[C@H](C)/C=C\CC1)O[C@@](O)([C@@H]1CSC(=O)N1)C2 [Latrunculin B, reference compound]
Inhibition of G13/LARG-stimulated rho transcriptional signaling [1]: Inhibition
luciferase expression activated by SRF-VP16 [2]: did not inhibit
luciferase expression induced by G13, LARG or constitutively active rhoA-GV [2]: fully inhibits
SRE.L rho reporter signal activated by ras ([7]; FIG. 14): blocked
ras-stimulated transcriptional signals [7]: not
rhoGEF-stimulated luciferase signal [13]: completely eliminated

C[C@@H](N)[C@H]1CC[C@H](C(=O)Nc2ccncc2)CC1 [Y-27632, reference compound]
Inhibition of G13/LARG-stimulated rho transcriptional signaling [1]: only partially blocked; also recorded: Inhibition
luciferase expression stimulated by transfecting in the kinase ROCK [14]: fully inhibited

lysophosphatidic acid [LPA, reference compound]
pEC50 [15]: 4.30

thrombin
pEC50 [15]: 7.10
